We go through 23 compounds from patent publication US11926619B2, “Certain pladienolide compounds and methods of use” (EISAI R&D MANAGEMENT CO., LTD., priority 2018, dated 2024).

Bounds are passed on as bounds.

The test system of assay [1] is WiDr-R cells (colon cancer cells; chemically-induced SF3B1 R1074H mutant). Description: Cell viability assay (CellTiter-Glo, 72 hr), resistant WiDr-R cells (counter-screen). In kind it is cell-based. The following applies: WiDr-R cells (SF3B1 R1074H mutation, resistant); read-out: WiDr-R GI50. The gist of the method: (§1)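 Cells at 2000/well were exposed to 9 compound concentrations (0.1% DMSO) in duplicate or triplicate for 72 hr at 37 °C. ATP was read by CellTiter-Glo against a time-zero plate and DMSO control growth. Percent growth/viability was plotted against concentration to give Emax; negative values indicate lethality.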

In assay [2] the test system is Panc 05.04 cells (pancreatic cancer cells; Q699H and K700E mutations in SF3B1). Put plainly: Cell viability assay (CellTiter-Glo, 72 hr), Panc 05.04 cells. In kind it is cell-based. The following applies: Panc 05.04 cells (mutant SF3B1); for Emax: maximum achievable response in tested dose range, negative value = cellular lethality, read-out: Panc 05.04 (mt SF3B1 cells) Emax (%); for GI50: read-out: Panc 05.04 (mt SF3B1 cells), GI50. The gist of the method: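 Viability was read as ATP content (CellTiter-Glo) after 72 hr compound exposure of Panc 05.04 cells at 37 °C, nine concentrations, 0.1% DMSO. Percentage growth was referenced to time-zero and vehicle wells and plotted against concentration to obtain Emax; negative Emax denotes cell killing.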

A further assay has as its target T1, SF3b complexes (Homo sapiens, UniProt O75533+Q7RTV0).
T1 construct: endogenous in cells
Description: Scintillation proximity assay (SPA) with [3H]-labelled pladienolide probe. In kind it is binding. To be noted: wt SF3B1, read-out: SPA (wt SF3B1 cells) IC50. Here is the method:
Batch immobilization of anti-SF3B1 antibody (MBL) to anti-mouse PVT SPA scintillation beads (PerkinElmer) was prepared as follows: for every 2.5 mg of nuclear extracts, 5 μg anti-SF3B1 antibody and 1.5 mg of beads were mixed in 150 μl PBS. The antibody-bead mixture was incubated for 30 min at RT and centrifuged at 18,000 g for 5 min. 150 μl PBS was used to resuspend every 1.5 mg antibody-bead mixture. The beads were suspended and added to the prepared nuclear extracts. The slurry was incubated for 2 h at 4° C. with gentle mixing. The beads were then collected by centrifuging at 18,000 g for 5 min, and washed twice with PBS+0.1% Triton X-100. After a final centrifugation step, every 1.5 mg of beads was suspended with 150 μl of PBS. The SF3b complexes were tested for [^3H]-labelled pladienolide probe binding ([^3H]-PB), synthesized as previously described (Kotake et al., 2007). 100 μL binding reactions were prepared with 50 μl bead slurry and by adding varying concentrations of PB or PB—OH, and after 30 min pre-incubation, 2.5 nM [^3H]—PB was added. The mixture was incubated for 30 min, and luminescence signals were read using a MicroBeta2 Plate Counter (PerkinElmer). Prism 6 (Graphpad) was used for non-linear regression curve fitting of the data.

For assay [3], the system named is WiDr cells (colon cancer cells; wildtype SF3B1). Description: Cell viability assay (CellTiter-Glo, 72 hr), WiDr cells. The class given is cell-based. The following applies: Homo sapiens; WiDr cells (wildtype SF3B1); read-out: WiDr GI50. The method, boiled down: as §1

Turning to `C/C(=C\C=C\[C@@H](C)c1ccccn1)[C@H]1OC(=O)C[C@H](O)CC[C@H](C)[C@@H](OC(=O)N(C)C)/C=C/[C@@H]1C`, the values for the GI50 in assay [1], in assay [2] and in assay [3] were greater than 10000 nM, 1720 nM and 479 nM, respectively. In addition, the Emax in assay [2] worked out at 24%. The IC50 on SF3b complexes is 142 nM.

For the compound `CCCN(C)C(=O)OC[C@H](C)/C=C/C=C(\C)[C@H]1OC(=O)C[C@H](O)CC[C@@](C)(O)[C@@H](OC(C)=O)/C=C/[C@@H]1C`, the GI50 is greater than 1000 nM in assay [1], 42.5 nM in assay [2] and 39.1 nM in assay [3]. In addition, in assay [2], the Emax is -91.8%. Besides, at SF3b complexes, the IC50 was 6.22 nM.

Turning to `CC(=O)O[C@H]1/C=C/[C@H](C)[C@@H](/C(C)=C/C=C/[C@@H](C)COC(=O)N(C)C(C)C)OC(=O)C[C@H](O)CC[C@@]1(C)O`, the GI50 in assay [1] was greater than 10000 nM; in assay [2], 54.6 nM; in assay [3], 32.6 nM. In assay [2], the Emax was -87.4%. On SF3b complexes, the IC50 was determined as 4.85 nM.

Consider `C/C(=C\C=C\C(C)c1ncccc1C)[C@H]1OC(=O)C[C@H](O)CC[C@@](C)(O)[C@@H](OC(=O)N2CCN(C3CCCCCC3)CC2)/C=C/[C@@H]1C` (stereo partly shown), for which the GI50 in assay [1] was greater than 1000 nM; in assay [2], 21.2 nM; in assay [3], 15.8 nM. The Emax in assay [2] was -92.3%. The IC50 at SF3b complexes stood at 6.26 nM.

On to `C/C(=C\C=C\C(C)c1cccnn1)[C@H]1OC(=O)C[C@H](O)CC[C@@](C)(O)[C@@H](OC(=O)N2CCN(C)CC2)/C=C/[C@@H]1C` (stereo partly shown), for which the GI50 in assay [1] was greater than 1000 nM; in assay [2], 59.2 nM; in assay [3], 18.7 nM. For the same compound, in assay [2], the Emax was -90.9%. On SF3b complexes, the IC50 stood at 9.2 nM.

Take `C/C(=C\C=C\[C@@H](C)COC(=O)N1CCC[C@H]1CO)[C@H]1OC(=O)CCCC[C@@](C)(O)[C@@H](OC(=O)N2CCN(C)CC2)/C=C/[C@@H]1C`: the values for the 50% growth inhibitory concentration (GI50) in assay [1], in assay [2] and in assay [3] were greater than 1000 nM, 2.07 nM and 1.74 nM, respectively. Also, in assay [2], the Emax is -72.3%. Besides, at SF3b complexes, the IC50 was 2.54 nM.

Regarding `COC[C@H]1CCCN1C(=O)OC[C@H](C)/C=C/C=C(\C)[C@H]1OC(=O)C[C@H](O)CC[C@@](C)(O)[C@@H](OC(C)=O)/C=C/[C@@H]1C`, the GI50 in assay [1] is greater than 1000 nM; in assay [2], 76.5 nM; in assay [3], 71.6 nM. Also, the Emax in assay [2] is -90.9%. The IC50 on SF3b complexes came out at 60.7 nM.

Turning to `C/C(=C\C=C\[C@@H](C)COC(=O)N1CCC[C@H]1CF)[C@H]1OC(=O)C[C@H](O)CC[C@@](C)(O)[C@@H](OC(=O)N2CCN(C3CCCCCC3)CC2)/C=C/[C@@H]1C`, the GI50 was greater than 1000 nM in assay [1], 1.75 nM in assay [2] and 1.24 nM in assay [3]. In assay [2], the Emax was -72.7%. On SF3b complexes, the concentration for half-maximal inhibition (IC50) was determined as 4.23 nM.

Regarding `C/C(=C\C=C\C(C)(C)COC(=O)N1CCCC1)[C@H]1OC(=O)C[C@H](O)CC[C@@](C)(O)[C@@H](OC(=O)N2CCN(C3CCCCCC3)CC2)/C=C/[C@@H]1C`, the GI50 turned out to be 221 nM in assay [1], 4.43 nM in assay [2] and 3.46 nM in assay [3]. For the same compound, the Emax in assay [2] is -79.7%. Further, the concentration for half-maximal inhibition (IC50) on SF3b complexes is 5.14 nM.

As for `CC(=O)O[C@H]1/C=C/[C@H](C)[C@@H](/C(C)=C/C=C/[C@@H](C)COC(=O)N2CCC[C@@H]2CO)OC(=O)C[C@H](O)CC[C@@]1(C)O`, the GI50 in assay [1] is greater than 10000 nM; in assay [2], 35.1 nM; in assay [3], 24.7 nM. In assay [2], the Emax was -83.4%. Moreover, the IC50 at SF3b complexes is 80.4 nM.

As for `C/C(=C\C=C\[C@@H](C)c1ccccn1)[C@H]1OC(=O)C[C@H](O)CC[C@@](C)(O)[C@@H](OC(=O)N2CCOCC2)/C=C/[C@@H]1C`, the GI50 was greater than 1000 nM in assay [1], 2550 nM in assay [2] and greater than 1000 nM in assay [3]. Also, in assay [2], the Emax was 35.3%. Further, the IC50 at SF3b complexes worked out at 480 nM.

In the case of `CC(=O)O[C@H]1/C=C/[C@H](C)[C@@H](/C(C)=C/C=C/[C@@H](C)COC(=O)N2CCN(C)CC2)OC(=O)C[C@H](O)CC[C@@]1(C)O`, the GI50 in assay [1] was greater than 1000 nM; in assay [2], 203 nM; in assay [3], 106 nM. Also, the Emax in assay [2] was -88.8%. The IC50 at SF3b complexes was found to be 236 nM.

In the case of `CC[C@H](OC(C)=O)[C@@H](C)[C@H]1O[C@@H]1C[C@@](C)(O)/C=C/C=C(\C)[C@H]1OC(=O)C[C@H](O)CC[C@@](C)(O)[C@@H](OC(=O)N2CCN(C3CCCCCC3)CC2)/C=C/[C@@H]1C`, the GI50 was determined as 132 nM in assay [1], 2.41 nM in assay [2] and 2 nM in assay [3]. Also, the Emax in assay [2] was -78.6%. Besides, the IC50 on SF3b complexes was found to be 5.85 nM.

In the case of `COC[C@@H]1CCCN1C(=O)OC[C@H](C)/C=C/C=C(\C)[C@H]1OC(=O)C[C@H](O)CC[C@@](C)(O)[C@@H](OC(=O)N2CCN(C3CCCCCC3)CC2)/C=C/[C@@H]1C`, the GI50 was greater than 1000 nM in assay [1], 11.9 nM in assay [2] and 29.1 nM in assay [3]. Further, the Emax in assay [2] is -89.1%. For the same compound, the IC50 on SF3b complexes worked out at 16.8 nM.

Consider `CCCNC(=O)OC[C@H](C)/C=C/C=C(\C)[C@H]1OC(=O)C[C@H](O)CC[C@@](C)(O)[C@@H](OC(C)=O)/C=C/[C@@H]1C`, for which the GI50 in assay [1] was greater than 10000 nM; in assay [2], 4590 nM; in assay [3], 1940 nM. In assay [2], the Emax was found to be 40.5%. In addition, the IC50 at SF3b complexes is 473 nM.

Turning to `C/C(=C\C=C\[C@@H](C)COC(=O)N1CC=CC1)[C@H]1OC(=O)C[C@H](O)CC[C@@](C)(O)[C@@H](OC(=O)N2CCN(C3CCCCCC3)CC2)/C=C/[C@@H]1C`, the concentration for 50% growth inhibition (GI50) in assay [1] is greater than 1000 nM; in assay [2], 3.68 nM; in assay [3], 22.2 nM. Also, in assay [2], the Emax was -89.8%. The IC50 at SF3b complexes worked out at 3.68 nM.

With `CC(=O)O[C@H]1/C=C/[C@H](C)[C@@H](/C(C)=C/C=C/[C@@H](C)COC(=O)N2CC[C@H](O)C2)OC(=O)C[C@H](O)CC[C@@]1(C)O`, the GI50 in assay [1] is greater than 10000 nM; in assay [2] it was 45.1 nM; in assay [3], 51.5 nM. The Emax in assay [2] was -89.6%. Further, the IC50 at SF3b complexes is 96.5 nM.

On to `CC(=O)O[C@H]1/C=C/[C@H](C)[C@@H](/C(C)=C/C=C/Cc2ccccn2)OC(=O)C[C@H](O)CC[C@@]1(C)O`, for which the GI50 in assay [1] was greater than 10000 nM; in assay [2], greater than 10000 nM; in assay [3], 559 nM. Moreover, in assay [2], the Emax is 87.2%. Moreover, the IC50 at SF3b complexes is greater than 1200 nM.

On to `C/C(=C\C=C\C(C)c1ccncn1)[C@H]1OC(=O)C[C@H](O)CC[C@@](C)(O)[C@@H](OC(=O)N2CCN(C3CCCCCC3)CC2)/C=C/[C@@H]1C` (stereo partly shown), for which the 50% growth inhibitory concentration (GI50) in assay [1] is greater than 1000 nM; in assay [2], 956 nM; in assay [3], 532 nM. The Emax in assay [2] was -26.6%. Besides, the IC50 at SF3b complexes came out at 504 nM.

As to `C/C(=C\C=C\[C@@H](C)CNC(=O)N1CCCC1)[C@H]1OC(=O)C[C@H](O)CC[C@@](C)(O)[C@@H](OC(=O)N2CCN(C3CCCCCC3)CC2)/C=C/[C@@H]1C`, the GI50 was greater than 1000 nM in assay [1], 19.8 nM in assay [2] and 27.6 nM in assay [3]. In addition, the Emax in assay [2] is -90.9%. Also, the IC50 on SF3b complexes came to 5.24 nM.

As to `C/C(=C\C=C\C(C)c1ccncc1)[C@H]1OC(=O)C[C@H](O)CC[C@@](C)(O)[C@@H](OC(=O)N2CCN(C3CCCCCC3)CC2)/C=C/[C@@H]1C` (stereo partly shown), the GI50 in assay [1] is greater than 1000 nM; in assay [2], 6.63 nM; in assay [3] it was 14 nM. Further, the Emax in assay [2] was -95.1%. Moreover, at SF3b complexes, the IC50 is 2.74 nM.

Turning to `CC(=O)O[C@H]1/C=C/[C@H](C)[C@@H](/C(C)=C/C=C/[C@@H](C)CO)OC(=O)C[C@H](O)CC[C@@]1(C)O`, the GI50 in assay [1] was greater than 10000 nM; in assay [2], 6920 nM; in assay [3], 4040 nM. Moreover, in assay [2], the Emax turned out to be 47.5%. In addition, the IC50 at SF3b complexes is 326 nM.

Regarding `C/C(=C\C=C\[C@@H](C)COC(=O)N1[C@H](C)CC[C@H]1C)[C@H]1OC(=O)C[C@H](O)CC[C@@](C)(O)[C@@H](OC(=O)N2CCN(C)CC2)/C=C/[C@@H]1C`, the GI50 is greater than 1000 nM in assay [1], 1.12 nM in assay [2] and 1.03 nM in assay [3]. Further, the Emax in assay [2] is -68.1%. Moreover, the half-maximal inhibitory concentration (IC50) on SF3b complexes was determined as 2.77 nM.
